This note sets out measurements from patent US8980843B2, “Leptin agonist and methods of use” (Temple University—of the Commonwealth System of Higher …, priority 2009, dated 2015).

“Also recorded” adds a separate entry of the source. Non-standard residues stand in square brackets, D forms with d. Residues, ends and D or L forms follow the SMILES beside them. *: point of attachment. αGalNAc = CC(=O)N[C@@H]1[C@@H](O)[C@@H](O)[C@@H](CO)O[C@@H]1*; Tyr(3,5-I2) = N[C@@H](Cc1cc(I)c(O)c(I)c1)C(=O)O; Acp = not defined here; Ahx = NCCCCCC(=O)O A value given as a limit tells only on which side of the number the result lay.

Data set [1] has as its system ObR-positive LN229 glioblastoma cells. The data set is described as follows: Cell proliferation assay, ObR-positive LN229 glioblastoma cells. It is filed as cell-based. To be noted: for Selectivity (EC/IC): LN229 cells. The protocol:
(§1) LN18 and LN229 cells naturally expressing ObR were purchased from ATCC and were cultured in DMEM low glucose plus 5% fetal bovine serum.
(§2) Seventy percent confluent cultures of LN18 and LN229 cells were synchronized in serum-free medium (DMEM plus 10 μM FeSO4 and 0.5% bovine serum albumin—BSA) for 48 hours and then treated with leptin and/or compounds (different doses) for 3 days. Cell numbers before and after treatment were determined by direct counting the cells with trypan blue exclusion. All assays were done in triplicate and repeated 3-6 times. The cell numbers were expressed as means±standard error. The results were statistically evaluated by Student's t-test and analysis of variance (ANOVA). Values of p<0.05 were considered statistically significant.
(§3) Stimulation of ObR-positive cells by compound (1) was evaluated. A true agonist of an ObR-positive receptor should stimulate the growth of ObR-positive cells when added alone and should not antagonize the actions of leptin in the same cells. In order to determine whether compound (1) is a true agonist, the ObR-positive, CNS-resident glioblastoma cell lines LN229 and LN18 were used. EC values for this peptide were measured without exogenous leptin present, and IC values with 12 nM leptin added.

Data set [2] relates to ObR-positive LN18 glioblastoma cells. The data set is described as follows: Cell proliferation assay, LN18 glioblastoma cells. It counts as cell-based. To be noted: data not shown. The protocol:
as §1, §2, §3

The nature of data set [3]: In vivo biodistribution of fluorescent-labelled peptide. Here is the method:
Compound (2), labeled with fluorescent dye Alexa Fluor® 680, was prepared and purified by reverse phase HPLC. 5 μg of the compound were injected intraperitoneally into anesthetized female Balb/c mice. While sleeping, the animals were placed into the fluorescence microscope chamber. Fluorescence exposure pictures were taken with a Kodak 4000MM camera set to 695 nm emission wavelength at five minute intervals afterwards for 80 min.

Data set [4] concerns high-fat induced obesity (DIO) C57BL/6 mice. In words: Mouse model of obesity and leptin resistance (DIO mice). It counts as in vivo. To be noted: for Blood glucose level / Blood total cholesterol level: DIO mice; for resistance to treatment (weight curves): 10-day ip treatment, leptin 0.1, compound (1) 0.02 and 0.1 mg/kg/day. The protocol:
Animals were sacrificed by CO2 inhalation. Livers were removed and fixed in 10% buffered formaldehyde, pH, 7.4. After 24 hour fixation, liver specimens were dehydrated in graded ethanol and placed into methyl benzoate for an hour. The specimens were then transferred to xylene and embedded into paraffin. 6-μm thick paraffin sections were deparaffinized and stained with H&E. Photomicrographs were taken by using a Zeiss light microscope equipped with a CCD camera. The final magnification of the pictures was 200-fold.
An animal model for leptin resistance was used to evaluate compounds of the invention. In this model, based on high-fat induced obesity (DIO) of normal mice, the animals are fed with a diet containing 40-60% fat and become resistant to leptin treatment (Steinberg et al., 2006, Endocrinology 147: 3906-3914; Nakagawa et al., 2003, J. Obesity 27: 557-565). Normal C57BL/6 mice were fed with regular 6% lab chow until 3 weeks of age when their diet was switched to peanuts only. Peanuts have 47-50% dry fat content, and are considered a typical high-fat food (Isleib et al., 2004, J. Agric. Food Chem. 52: 3165-3168). DIO mice develop peripheral leptin resistance after 16 days of high-fat diet (van Heek et al., 1997, J. Clin. Invest. 99:3 85-390). In this study, the mice were fed peanuts for 5 weeks. The animals had access to water and peanuts ad libitum. After 3 weeks (total age 6 weeks) a group of 6 mice remained untreated, and 4 groups received leptin or a compound of the invention.
Mice were weighed daily and received a daily single dose (around noon time) intraperitoneally with the following scheme: Group 1 (6 mice: 3 males, 3 females) —physiological solution (control); Group 2 (6 mice: 3 males, 3 females) —0.1 mg/kg/day leptin; Group 3 (4 mice: 2 males, 2 females) —0.02 mg/kg/day compound of the invention; Group 4 (6 mice: 3 males, 3 females) —0.1 mg/kg/day compound of the invention; and Group 5 (4 mice: 2 males, 2 females) —0.5 mg/kg/day compound of the invention. After 10 days of treatment, one male and one female mouse from each group were sacrificed and bled, and their livers, spleens, kidneys and brains were removed for histology and toxicity analysis.
The DIO mice were allowed to eat peanut ad libitum. They were weighed daily and received the following intraperitoneal treatment at noontime: Group 1 (6 mice: 3 males, 3 females) —physiological solution (control); Group 2 (6 mice: 3 males, 3 females) —0.1 mg/kg/day of leptin; Group 3 (4 mice: 2 males, 2 females) —0.02 mg/kg/day of compound (1); Group 4 (6 mice: 3 males, 3 females) —0.1 mg/kg/day of compound (1); and Group 5 (4 mice: 2 males, 2 females) —0.5 mg/kg/day of compound (1).

The test system of a further data set is obese C57BL/6 mice. The data set is described as follows: Pregnancy test after treatment of obese mice. It counts as in vivo. To be noted: for Number of pregnancy incidents: observed 5 weeks. From the text:
The remaining mice after the treatment with leptin or a compound of the invention were returned to 6% fat lab chow diet, and locked into cages in couples. […] The two successful litters were examined for growth and behavioral patterns.
Upon cessation of the weight gain assay and laboratory work, the remaining mice were returned to 6% fat lab chow diet, and locked into cages in couples to investigate whether treatment with leptin or compound (1) improved their fertility rates. […] Neither of two couples of control, untreated mice produced litters, as expected (Table 3). […] Leptin treatment somewhat improved the situation because one of the two couples produced a litter. As for the couple of mice treated with the 0.5 mg/kg/day dose of compound (1), the female became pregnant immediately and delivered 6 healthy pups in less than a month (Table 3).

The next data set deals with C57BL/6 mice. The data set is described as follows: Short chronic toxicity study in peanut-fed mice. It is filed as in vivo. To be noted: 1.5 or 4.0 mg/kg ip once daily, 4 days. Here is the method: Eight C57BL/6 mice, 6 weeks of age (8 mice: 4 males, 4 females), were fed with peanut diet for 6 days. They were split in three different groups. The first group was left untreated (4 mice: 2 males, 2 females). The second group received a compound of the invention once daily intraperitoneally at 1.5 mg/kg for 4 days (2 mice: 1 male, 1 female). The third group received a compound of the invention once daily intraperitoneally at 4.0 mg/kg (2 mice: 1 male, 1 female) for 4 days. The animals were inspected daily for signs of disease or discomfort. After 5 days of treatment, the mice were weighed, sacrificed with CO2 inhalation, and bled for laboratory blood analysis. Their brains, livers, kidneys and spleens were inspected, removed and weighed.
Eight mice (4 males, 4 females) were fed with peanut diet for 6 days. After that, they were left untreated (2 males, 2 females), or received compound (1) once daily at 1.5 mg/kg (1 male, 1 female) or 4.0 mg/kg (1 male, 1 female) for 4 days.

Another data set deals with normal F344 male rats. In words: Rat appetite control, intranasal administration to normal rats. The settings on record: 0.1 mg/kg/day intranasal. It is filed as in vivo. The protocol: Eight 6-weeks-old male […] rats were kept on regular laboratory diet. At noon time for 10 days, the animals were weighed, turned upside down, and received 0.1 mg/kg/day of a compound of the invention ([…]) or physiological solution ([…]) dripped in 10 μL volume into their nose. On day 15, the rats were weighed and sacrificed (cervical dislocation), and bled for laboratory blood analysis. Their brains, livers, kidneys and spleens were removed and weighed.
Rats were allowed to lab chow ad libitum, and treatment lasted for 10 days with 0.1 mg/kg/day single dose of compound (1) dropped into the nose in 10 μL salt solution. Untreated control animals were administered 10 μL physiological salt solution. Results are represented in FIG. 5.

Setting [5] is: 5 μg intraperitoneally, fluorescence imaging.

Regarding `CC(=O)N[C@H]1[C@@H](O[C@H](C)[C@H](NC(=O)[C@H](CO)NC(=O)[C@@H](N)Cc2cc(I)c(O)c(I)c2)C(=O)N[C@@H](CCC(=O)O)C(=O)N[C@H](C(=O)N[C@H](C(=O)N[C@@H](C)C(=O)N[C@@H](CC(C)C)C(=O)N[C@@H](CO)C(=O)N[C@@H](CCCNC(=N)N)C(=O)NCCCCCC(N)=O)C(C)C)C(C)C)O[C@H](CO)[C@H](O)[C@@H]1O` [compound (1), Tyr(I2)-Ser-Thr(α-GalNAc)-Glu-Val-Val-Ala-Leu-Ser-Arg-AcpNH2] (H-[Tyr(3,5-I2)]ST(αGalNAc)EVVALSR[Ahx]-NH2; N-terminus assumed), the “Selectivity (EC/IC)” value in data set [1] was more than 100. For the same compound, in data set [1] (listed as Compound (1)), the “Selectivity (EC/IC)” value was “greater than 100”. The IC100 in data set [1] (LN229 proliferation, with 12 nM leptin added) is on record as more than 100 nM. Also, in data set [1] (LN229 proliferation, without exogenous leptin, 3 days), the EC100 is less than 1 nM. In data set [1] (with 12 nM leptin added), the “Antagonistic properties (ICs) to leptin-induced LN229 stimulation” value was not below 100 nM. The agonistic activity entry in data set [2] was “picomolar agonistic activities”. Besides, in data set [3] (inferred from labelled analogue), the “BBB-penetrating ability, by inference from compound (2)” value is on record as “good BBB-penetrating ability”. In addition, the “weight reduction relative to untreated controls at end of treatment” value in data set [4] (0.02 mg/kg/day ip, 10 days) is 0.5 g. In data set [4] (0.02 mg/kg/day ip), the Blood glucose level came to 8.45 mM/L and the “Blood total cholesterol level” value was 2.51 mM/L. The “weight reduction relative to untreated controls at end of treatment” value in data set [4] (0.1 mg/kg/day ip, 10 days) was found to be 0.6 g. Besides, in data set [4] (0.1 mg/kg/day ip), the Blood glucose level worked out at 8.55 mM/L and the “Blood total cholesterol level” value is reported as 2.77 mM/L. In data set [4] (0.5 mg/kg/day ip), the “blood cholesterol level reduction” value was found to be 9%, the glucose level reduction stood at 17%, the “liver fat cell content (histology)” value is recorded as “fatty cytoplasm could no longer be observed; also recorded: fat cells were completely eliminated from the liver” and the Blood glucose level stood at 7.06 mM/L. In addition, in data set [4] (0.5 mg/kg/day ip), the “Blood total cholesterol level” value is on record as 2.08 mM/L. Moreover, in data set [4] (0.5 mg/kg/day ip, 10 days), the “net total body weight loss” value came out at 6.5% and the “relative weight loss compared to untreated mice” value is given as 1.3 g. The “liver fat cell content, dose dependence” value in data set [4] (0.02, 0.1 and 0.5 mg/kg/day ip) is given as “lowered the fatty cell content of the liver in a dose-dependent manner”. The “resistance to treatment (weight curves)” value in data set [4] is on record as “lack of resistance to peptide treatment”. In the data set on obese C57BL/6 mice (after 0.02 mg/kg/day ip), the “Number of pregnancy incidents” value amounted to 0. The “Number of pregnancy incidents” value in the data set with obese C57BL/6 mice (after 0.1 mg/kg/day ip) stood at 0. Further, the healthy pups delivered in the data set with obese C57BL/6 mice (after 0.5 mg/kg/day ip, one couple) is 6. Moreover, the “Number of pregnancy incidents” value in the data set on obese C57BL/6 mice (after 0.5 mg/kg/day ip) is on record as 1. For the same compound, the fertility of couples result in the data set on obese C57BL/6 mice (low-dose regimen (0.02 and 0.1 mg/kg/day)) is given as “remained infertile”. In the data set on C57BL/6 mice, the “average organ weight, brain” value came to 0.3 g; the “average organ weight, kidney (females)” value was determined as 0.20 g; the “average organ weight, kidney (males)” value stood at 0.25 g; the “average organ weight, liver” value was found to be 1.06 g. In addition, in the data set with C57BL/6 mice, the “average organ weight, spleen” value is given as 0.09 g; the gross necropsy result is “no signs of toxicity”; the “weight change during compound addition” value is listed as “Three of the 4 treated mice lost weight”. Moreover, the “weight growth less than untreated controls” value in the data set with normal F344 male rats (10 days, day 11) worked out at 10.8 g. Moreover, in the data set with normal F344 male rats (10 days, day 14), the “net total body weight (tbw) loss” value is 6.8% and the “weight growth less than untreated controls” value is recorded as 11.7 g. In the data set with normal F344 male rats (at sacrifice), the “average total blood cholesterol level” value is recorded as 1.28 mmol/L; the “organ weight, brain” value amounted to 1.2 g; the “organ weight, kidney” value was found to be 1.5 g; the “organ weight, liver” value is recorded as 6.9 g. Moreover, the “organ weight, spleen” value in the data set with normal F344 male rats (at sacrifice) came out at 0.42 g.
With “Alexa680-Tyr(I2)-Ser-Thr(α-GalNAc)-Glu-Val-Val-Ala-Leu-Ser-Arg-AcpNH2 ({Alexa680-Tyr(3,5-I2)-Ser-Thr(α-GalNAc)}-EVVALSR-{Acp-NH2}; reading uncertain) [compound (2)]”, in data set [3] (setting [5]), the BBB-penetrating ability result is on record as “good BBB-penetrating ability”; the “distribution into peptide elimination organs (kidneys, liver, spleen)” value is listed as “distributed into the usual peptide elimination organs within one hour from administration”; the “presence in tail, limbs and brain” value is “also found in the tail, the limbs and the brain”.
Consider “leptin: Human leptin purchased from R&D Systems; 146-amino acid neurohormone, native ObR ligand”, for which, in data set [4] (0.1 mg/kg/day ip), the “liver fat cell content (histology)” value is reported as “acinoperipheral regions of the liver still contained fat cells”, the Blood glucose level turned out to be 5.22 mM/L and the “Blood total cholesterol level” value is listed as 2.47 mM/L. The “weight reduction relative to untreated controls at end of treatment” value in data set [4] (0.1 mg/kg/day ip, 10 days) is listed as 0.3 g. For the same compound, the “resistance to treatment (weight curves)” value in data set [4] was “fast acquisition of resistance”. Also, the “Number of pregnancy incidents” value in the data set with obese C57BL/6 mice (after 0.1 mg/kg/day ip) worked out at 1.
